Experimental data reported in ChEMBL document CHEMBL5042504 (J Med Chem, 2022).
pIC50: −log10 of the molar value. Activity calls are given as the source filed them. No cut-off for these calls is given here.

How the values were obtained:
Histone deacetylase 3 [1] = target: T1, Histone deacetylase 3 (Homo sapiens, UniProt O15379); experiment: Inhibition of human recombinant HDAC3 using Boc-Lys(acetyl)-AMC substrate incubated for 2 hrs by fluorescence based assay
Histone deacetylase 3 [2] = target: T1, Histone deacetylase 3; experiment: Non competitive type inhibition of human HDAC3 (unknown origin) by Lineweaver-Burk plot analysis
MV4-11 [3] = experiment: Down regulation of p21 expression in human MV4-11 cells at 200 nM measured after 24 hrs by Western blot analysis; assay type: functional, cell-based
[4] = Toxicity in BALB/c mouse assessed as induction of pathological changes in lung by H and E staining based analysis; assay type: tissue-based; details: in vivo
[5] = Drug distribution in BALB/c mouse brain measured at 4 mg/kg, po or ip after 2 to 8 hrs after 0.5 hrs; assay type: ADME, organism-based; details: in vivo, time 2-8 hrs
MV4-11 [6] = experiment: Antitumor activity against human MV4-11 cells xenografted in balb/c mouse assessed as accumulation of AcHH4 protein level at 4 mg/kg, po measured after 2 hrs; assay type: functional, organism-based

T1 sequence (O15379 whole entry): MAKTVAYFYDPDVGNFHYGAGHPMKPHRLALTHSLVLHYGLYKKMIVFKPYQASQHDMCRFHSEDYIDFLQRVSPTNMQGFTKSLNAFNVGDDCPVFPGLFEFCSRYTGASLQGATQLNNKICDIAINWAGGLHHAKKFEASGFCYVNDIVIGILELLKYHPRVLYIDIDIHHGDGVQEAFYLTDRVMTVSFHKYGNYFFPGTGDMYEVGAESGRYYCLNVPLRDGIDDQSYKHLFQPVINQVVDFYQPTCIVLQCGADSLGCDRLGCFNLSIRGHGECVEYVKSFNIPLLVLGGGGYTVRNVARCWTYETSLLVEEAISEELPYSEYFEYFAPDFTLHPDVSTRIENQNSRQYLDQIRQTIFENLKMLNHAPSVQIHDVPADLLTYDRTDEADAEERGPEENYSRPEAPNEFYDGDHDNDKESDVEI

## CCCNNC(=O)c1ccc(CNC(=O)c2cc3ccccc3[nH]2)cc1
Histone deacetylase 3 [1]
  pIC50: 9.36
Histone deacetylase 3 [2]
  pIC50: 9.25
MV4-11 [3]
  Activity: Active
[4]
  Activity: Non-Toxic
[5]
  Drug uptake: Active
MV4-11 [6]
  Activity: Active
